In data set [1] the test system is advanced Alzheimer's disease. The data set can be described thus: Clinical case study: Alzheimer's disease (Example 5). It is filed as in vivo, human. Conditions: Case 20, 1.2 g curcumin bid, after 30 days. From the text: A person was presented with advanced Alzheimer's disease. Prior to dosing, they failed all short term memory questions on a test. […] They have continued to have lasting benefit from the therapy.

Details of data set [2]: species or system mice. Conditions: mouse, in vivo. The protocol:
Mice weighed ˜25 g each. Blood was drawn every 30 minutes for 180 total minutes.

Molecules are shown by their SMILES.

Take `COc1cc(C=CC(=O)CC(=O)C=Cc2ccc(O)c(OC)c2)ccc1O` [curcumin, 1,7-bis[4-hydroxy-3-methoxyphenyl]-1,6-heptadiene-3,5-dione]: the “short term memory questions on a test, advanced Alzheimer's disease” value in data set [1] is on record as “passed all short term memory questions”. Also, the absorbability / bioavailability result in data set [2] is given as “very poor absorbability”.

These data come from patent US10968260B2, “Curcumin-peptide conjugates and formulations thereof” (HAUS BIOCEUTICALS, INC., priority 2014, dated 2021).
